Measured values taken from publication PMC4503722, “Novel Phenotypic Outcomes Identified for a Public Collection of Approved Drugs from a Publicly Accessible Panel of Assays” (PLoS ONE, 2015).

Key:
hGSK3b = molecular target: T1, hGSK3b (Homo sapiens, UniProt P49841); assay: Cerep LANCE kinase assay hGSK3b (S1 assay 34); format: biochemical; settings: for hGSK3b LANCE IC50/EC50: assay number 34
T1 construct: purchased Cerep (LANCE kinase assay platform, contract assay)

HeLa cells = assay: cells; format: cell-based; settings: for Hela CellCycMod PI 2N IC50/EC50: assay number 14; for Hela CellCycMod PI S Phase IC50/EC50: assay number 15; for Hela CellCycMod PI 4N IC50/EC50: assay number 16; for Hela CellCycMod PI MI IC50/EC50: assay number 17; for Hela CellCycMod PI Cell Number IC50/EC50: assay number 18
Colo320 = assay: cells; format: cell-based; settings: for Basal_Viability ATP Colo 320 IC50/EC50: assay number 27
SW480 = assay: cells; format: cell-based; settings: for Basal_Viability ATP SW480 IC50/EC50: assay number 24
hp70S6K1 (RPS6KB1) = molecular target: T2, hp70S6K1 (RPS6KB1) (Homo sapiens, UniProt P23443); assay: Cerep LANCE kinase assay hp70S6K1 (S1 assay 31); format: biochemical; settings: for hp70S6K1 LANCE IC50/EC50: assay number 31
T2 construct: purchased Cerep (LANCE kinase assay platform, contract assay)

DLD-1 = assay: cells; format: cell-based; settings: for Basal_Viability ATP DLD-1 IC50/EC50: assay number 23
hFLT3 = molecular target: T3, hFLT3 (Homo sapiens, UniProt P36888); assay: Cerep LANCE kinase assay hFLT3 (S1 assay 35); format: biochemical; settings: for hFLT3 LANCE IC50/EC50: assay number 35
T3 construct: purchased Cerep (LANCE kinase assay platform, contract assay)

NCI-H716 cells = assay: cells; format: cell-based, Human; settings: for hNCI-H716 GLP1 Secretion IC50/EC50: assay number 12
STC-1 cell line = format: cell-based, mouse; settings: for mSTC-1 GLP1 Secretion IC50/EC50: assay number 13
HCT116 = assay: cells; format: cell-based; settings: basal; for Basal_Viability ATP HCT116 IC50/EC50: assay number 25
[1] = tested on: alkaline phosphatase (ALP) activity in C2C12 cells; format: cell-based; settings: concentration response; for WntCondMedia_Alk Phos C2C12 IC50/EC50: assay number 6
hJAK2 = molecular target: T4, hJAK2 (Homo sapiens, UniProt O60674); assay: Cerep LANCE kinase assay hJAK2 (S1 assay 33); format: biochemical; settings: for hJAK2 LANCE IC50/EC50: assay number 33
T4 construct: purchased Cerep (LANCE kinase assay platform, contract assay)

hKDR = molecular target: T5, hKDR (Homo sapiens, UniProt P35968); assay: Cerep LANCE kinase assay hKDR (S1 assay 32); format: biochemical; settings: for hKDR LANCE IC50/EC50: assay number 32
T5 construct: purchased Cerep (LANCE kinase assay platform, contract assay)

HT-29 = assay: cells; format: cell-based; settings: for Basal_Viability ATP HT-29 IC50/EC50: assay number 28
RKO = assay: cells; format: cell-based; settings: for Basal_Viability ATP RKO IC50/EC50: assay number 29
[2] = tested on: nuclear β-catenin in C2C12 cells; assay: cells; format: cell-based; settings: concentration response; for WntCondMedia_bCatenin C2C12 IC50/EC50: assay number 5
SNU-C1 = assay: cells; format: cell-based; settings: for Basal_Viability ATP SNU-C1 IC50/EC50: assay number 30
[3] = tested on: endothelial tube formation in co-cultures of ECFCs and ADSCs treated with VEGF; assay: cells; format: cell-based, human
[4] = tested on: ECFC/ADSC co-culture cell nuclei number
[5] = tested on: HCT116 cells treated with a GSK3β inhibitor; assay: cells; format: cell-based

T2 sequence (P23443 whole entry): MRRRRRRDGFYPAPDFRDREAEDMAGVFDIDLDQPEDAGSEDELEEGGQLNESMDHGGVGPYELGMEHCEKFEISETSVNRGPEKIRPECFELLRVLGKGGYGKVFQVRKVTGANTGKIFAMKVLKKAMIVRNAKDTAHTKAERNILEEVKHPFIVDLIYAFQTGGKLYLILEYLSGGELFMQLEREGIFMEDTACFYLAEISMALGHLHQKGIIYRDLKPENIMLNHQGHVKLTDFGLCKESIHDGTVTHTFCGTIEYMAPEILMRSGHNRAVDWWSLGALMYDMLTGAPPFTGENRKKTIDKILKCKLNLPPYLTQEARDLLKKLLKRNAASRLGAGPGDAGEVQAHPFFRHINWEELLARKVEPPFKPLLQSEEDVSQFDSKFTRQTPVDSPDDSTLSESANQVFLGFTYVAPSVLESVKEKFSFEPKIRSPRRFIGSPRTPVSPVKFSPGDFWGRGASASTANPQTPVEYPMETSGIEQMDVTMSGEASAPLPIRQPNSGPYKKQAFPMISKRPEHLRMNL
T1 sequence (P49841 whole entry): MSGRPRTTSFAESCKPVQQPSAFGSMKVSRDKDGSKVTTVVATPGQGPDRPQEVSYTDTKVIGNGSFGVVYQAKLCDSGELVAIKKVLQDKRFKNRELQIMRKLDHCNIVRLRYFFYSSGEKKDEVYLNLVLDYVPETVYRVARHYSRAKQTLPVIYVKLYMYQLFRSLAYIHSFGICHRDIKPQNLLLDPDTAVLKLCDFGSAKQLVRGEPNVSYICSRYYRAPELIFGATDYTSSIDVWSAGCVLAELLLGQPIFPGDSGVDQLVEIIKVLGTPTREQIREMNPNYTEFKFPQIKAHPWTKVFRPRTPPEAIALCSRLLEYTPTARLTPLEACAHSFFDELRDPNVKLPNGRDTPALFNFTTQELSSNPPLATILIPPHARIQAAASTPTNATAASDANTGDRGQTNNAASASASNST
T5 sequence (P35968 20-1356): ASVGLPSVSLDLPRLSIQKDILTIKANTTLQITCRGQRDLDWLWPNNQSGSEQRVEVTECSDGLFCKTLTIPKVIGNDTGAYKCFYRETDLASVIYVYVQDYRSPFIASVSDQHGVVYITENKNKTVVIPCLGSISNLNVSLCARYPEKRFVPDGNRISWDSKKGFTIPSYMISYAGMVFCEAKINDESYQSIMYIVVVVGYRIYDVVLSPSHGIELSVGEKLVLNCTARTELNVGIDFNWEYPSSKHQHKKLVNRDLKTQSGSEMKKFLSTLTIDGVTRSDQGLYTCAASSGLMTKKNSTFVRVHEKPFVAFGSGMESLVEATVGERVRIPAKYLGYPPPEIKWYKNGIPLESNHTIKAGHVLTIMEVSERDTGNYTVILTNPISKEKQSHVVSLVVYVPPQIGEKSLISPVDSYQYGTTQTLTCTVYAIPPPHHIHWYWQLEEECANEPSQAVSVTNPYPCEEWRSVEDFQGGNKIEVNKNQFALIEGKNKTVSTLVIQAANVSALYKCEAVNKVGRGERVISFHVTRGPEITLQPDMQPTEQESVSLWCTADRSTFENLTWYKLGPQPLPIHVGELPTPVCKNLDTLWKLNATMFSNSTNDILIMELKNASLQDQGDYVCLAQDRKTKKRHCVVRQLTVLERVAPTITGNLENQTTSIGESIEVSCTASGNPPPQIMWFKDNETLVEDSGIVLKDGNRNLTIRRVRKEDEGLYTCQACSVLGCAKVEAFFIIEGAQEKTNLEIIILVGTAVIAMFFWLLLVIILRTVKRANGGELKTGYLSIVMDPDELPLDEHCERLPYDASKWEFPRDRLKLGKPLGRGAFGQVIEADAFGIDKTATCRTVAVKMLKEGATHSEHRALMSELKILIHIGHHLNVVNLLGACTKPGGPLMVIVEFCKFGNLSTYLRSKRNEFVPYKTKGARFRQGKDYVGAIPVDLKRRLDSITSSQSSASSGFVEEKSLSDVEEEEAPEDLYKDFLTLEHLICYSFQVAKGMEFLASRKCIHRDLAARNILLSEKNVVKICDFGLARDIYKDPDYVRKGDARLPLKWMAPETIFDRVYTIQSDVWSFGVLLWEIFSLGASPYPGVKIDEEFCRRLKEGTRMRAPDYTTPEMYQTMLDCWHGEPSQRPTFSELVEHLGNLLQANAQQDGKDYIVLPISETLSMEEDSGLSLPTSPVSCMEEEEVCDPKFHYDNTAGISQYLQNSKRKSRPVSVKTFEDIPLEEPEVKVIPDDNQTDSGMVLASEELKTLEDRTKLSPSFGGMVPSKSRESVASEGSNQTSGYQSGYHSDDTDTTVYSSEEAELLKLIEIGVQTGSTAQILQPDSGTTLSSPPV
T4 sequence (O60674 whole entry): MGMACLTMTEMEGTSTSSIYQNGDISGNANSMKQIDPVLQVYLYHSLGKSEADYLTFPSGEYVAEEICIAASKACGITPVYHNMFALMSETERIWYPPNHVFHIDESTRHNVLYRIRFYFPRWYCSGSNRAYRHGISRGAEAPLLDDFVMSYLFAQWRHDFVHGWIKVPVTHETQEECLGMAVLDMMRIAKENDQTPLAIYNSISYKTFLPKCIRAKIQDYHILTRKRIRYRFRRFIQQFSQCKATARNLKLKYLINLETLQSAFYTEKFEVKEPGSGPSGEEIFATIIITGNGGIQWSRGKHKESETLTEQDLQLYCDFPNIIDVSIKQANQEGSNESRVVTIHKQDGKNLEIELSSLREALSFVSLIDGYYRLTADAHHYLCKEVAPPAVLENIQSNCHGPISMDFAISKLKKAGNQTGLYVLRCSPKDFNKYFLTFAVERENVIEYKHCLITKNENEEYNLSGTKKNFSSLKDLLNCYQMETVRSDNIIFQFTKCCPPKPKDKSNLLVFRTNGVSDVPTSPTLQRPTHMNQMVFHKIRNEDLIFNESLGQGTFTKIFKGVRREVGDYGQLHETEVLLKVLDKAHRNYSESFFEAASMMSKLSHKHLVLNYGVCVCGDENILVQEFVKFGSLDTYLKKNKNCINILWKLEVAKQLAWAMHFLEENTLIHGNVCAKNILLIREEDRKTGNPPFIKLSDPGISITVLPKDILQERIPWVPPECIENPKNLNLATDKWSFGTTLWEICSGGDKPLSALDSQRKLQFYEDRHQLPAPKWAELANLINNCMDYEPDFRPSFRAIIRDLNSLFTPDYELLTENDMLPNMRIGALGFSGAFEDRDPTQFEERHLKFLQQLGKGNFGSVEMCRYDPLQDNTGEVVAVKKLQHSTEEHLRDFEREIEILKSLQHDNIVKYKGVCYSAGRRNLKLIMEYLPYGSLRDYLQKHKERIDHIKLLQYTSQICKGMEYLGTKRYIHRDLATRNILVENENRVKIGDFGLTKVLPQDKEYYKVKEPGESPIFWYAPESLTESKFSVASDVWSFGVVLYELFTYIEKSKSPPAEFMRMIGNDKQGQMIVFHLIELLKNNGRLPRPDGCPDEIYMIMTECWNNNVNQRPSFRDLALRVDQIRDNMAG
T3 sequence (P36888 27-993): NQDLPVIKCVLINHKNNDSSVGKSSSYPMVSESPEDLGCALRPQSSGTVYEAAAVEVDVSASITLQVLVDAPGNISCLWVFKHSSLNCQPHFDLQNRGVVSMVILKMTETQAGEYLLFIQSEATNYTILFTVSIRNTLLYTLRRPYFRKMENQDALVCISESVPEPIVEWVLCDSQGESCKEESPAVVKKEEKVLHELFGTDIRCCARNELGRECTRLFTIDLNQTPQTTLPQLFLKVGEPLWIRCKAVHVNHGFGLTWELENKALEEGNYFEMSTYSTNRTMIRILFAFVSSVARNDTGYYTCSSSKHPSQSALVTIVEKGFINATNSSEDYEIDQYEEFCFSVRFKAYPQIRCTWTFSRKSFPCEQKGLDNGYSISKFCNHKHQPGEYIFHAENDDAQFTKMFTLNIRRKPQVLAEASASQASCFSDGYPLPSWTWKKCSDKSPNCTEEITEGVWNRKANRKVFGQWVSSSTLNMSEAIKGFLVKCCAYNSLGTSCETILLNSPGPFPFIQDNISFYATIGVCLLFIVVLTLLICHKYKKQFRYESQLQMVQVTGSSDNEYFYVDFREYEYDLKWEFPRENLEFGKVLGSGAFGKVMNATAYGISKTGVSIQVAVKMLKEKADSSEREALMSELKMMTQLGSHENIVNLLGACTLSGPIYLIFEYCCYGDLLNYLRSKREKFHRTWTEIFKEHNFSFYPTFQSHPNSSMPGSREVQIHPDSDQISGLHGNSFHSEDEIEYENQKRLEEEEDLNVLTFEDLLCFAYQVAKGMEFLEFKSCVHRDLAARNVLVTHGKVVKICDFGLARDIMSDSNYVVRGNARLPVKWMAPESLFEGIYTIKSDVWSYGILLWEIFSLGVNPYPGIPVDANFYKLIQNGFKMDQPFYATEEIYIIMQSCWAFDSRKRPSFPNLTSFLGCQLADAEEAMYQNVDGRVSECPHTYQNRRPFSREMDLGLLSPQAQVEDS

Cc1cc2c(C(C)C)c(O)c(O)c(C=O)c2c(O)c1-c1c(C)cc2c(C(C)C)c(O)c(O)c(C=O)c2c1O [NCGC00016423-15]
hGSK3b LANCE IC50/EC50 (hGSK3b): > 20 µM
Hela CellCycMod PI 2N IC50/EC50 (HeLa cells; 2N): > 10 µM
Hela CellCycMod PI S Phase IC50/EC50 (HeLa cells): > 10 µM
Hela CellCycMod PI 4N IC50/EC50 (HeLa cells; 4N): > 10 µM
Hela CellCycMod PI MI IC50/EC50 (HeLa cells; MI): > 10 µM
Hela CellCycMod PI Cell Number IC50/EC50 (HeLa cells): 3.7083 µM
Basal_Viability ATP Colo 320 IC50/EC50 (Colo320; basal): 1.3794 µM
Basal_Viability ATP SW480 IC50/EC50 (SW480; basal): 0.9563 µM
hp70S6K1 LANCE IC50/EC50 (hp70S6K1 (RPS6KB1)): > 20 µM
Basal_Viability ATP DLD-1 IC50/EC50 (DLD-1; basal): 0.8345 µM
hFLT3 LANCE IC50/EC50 (hFLT3): > 20 µM
hNCI-H716 GLP1 Secretion IC50/EC50 (NCI-H716 cells): 23.4306 µM
mSTC-1 GLP1 Secretion IC50/EC50 (STC-1 cell line): > 40 µM
Basal_Viability ATP HCT116 IC50/EC50 (HCT116): 0.7844 µM
WntCondMedia_Alk Phos C2C12 IC50/EC50 [1]: > 20 µM
hJAK2 LANCE IC50/EC50 (hJAK2): > 20 µM
hKDR LANCE IC50/EC50 (hKDR): > 20 µM
Basal_Viability ATP HT-29 IC50/EC50 (HT-29; basal): 1.4237 µM
Basal_Viability ATP RKO IC50/EC50 (RKO; basal): 0.9156 µM
WntCondMedia_bCatenin C2C12 IC50/EC50 [2]: 3.4859 µM
Basal_Viability ATP SNU-C1 IC50/EC50 (SNU-C1; basal): 0.3538 µM

COC(=O)Nc1nc2ccc(Sc3ccccc3)cc2[nH]1 [NCGC00016855-10]
IC50/EC50, hGSK3b LANCE (assay number 34) (hGSK3b): > 20 µM
IC50/EC50, Hela CellCycMod PI 2N (assay number 14) (HeLa cells; 2N): 0.2042 µM
IC50/EC50, Hela CellCycMod PI 4N (assay number 16) (HeLa cells; 4N): 0.195 µM
IC50/EC50, Hela CellCycMod PI Cell Number (assay number 18) (HeLa cells; Cell Number): 0.0097 µM
IC50/EC50, Hela CellCycMod PI MI (assay number 17) (HeLa cells; MI): 0.2276 µM
IC50/EC50, Hela CellCycMod PI S Phase (assay number 15) (HeLa cells; S Phase): > 10 µM
IC50/EC50, Basal_Viability ATP Colo 320 (assay number 27) (Colo320; basal): > 20 µM
IC50/EC50, Basal_Viability ATP SW480 (assay number 24) (SW480; basal): > 20 µM
IC50/EC50, hp70S6K1 LANCE (assay number 31) (hp70S6K1 (RPS6KB1)): > 20 µM
IC50/EC50, Basal_Viability ATP DLD-1 (assay number 23) (DLD-1; basal): 0.06726 µM
IC50/EC50, hFLT3 LANCE (assay number 35) (hFLT3): > 20 µM
IC50/EC50, VEGF_ADSC\ECFC Angio CD31 TubeArea (assay number 2) [3]: 0.2067 µM
IC50/EC50, hNCI-H716 GLP1 Secretion (assay number 12) (NCI-H716 cells; concentration response): > 40 µM
IC50/EC50, mSTC-1 GLP1 Secretion (assay number 13) (STC-1 cell line; concentration response): > 20 µM
IC50/EC50, Basal_Viability ATP HCT116 (assay number 25) (HCT116): 0.001 µM
IC50/EC50, WntCondMedia_Alk Phos C2C12 (assay number 6) [1]: 0.4382 µM
IC50/EC50, hJAK2 LANCE (assay number 33) (hJAK2): > 20 µM
IC50/EC50, VEGF_ADSC\ECFC Angio Hoechst NucArea (assay number 3) [4]: > 10 µM
IC50/EC50, hKDR LANCE (assay number 32) (hKDR): > 20 µM
IC50/EC50, Basal_Viability ATP HT-29 (assay number 28) (HT-29; basal): > 20 µM
IC50/EC50, GSK3b inh pretreated_Viability ATP HCT116 (assay number 26) ([5]; GSK3b inh pretreated): 0.003 µM
IC50/EC50, Basal_Viability ATP RKO (assay number 29) (RKO; basal): 0.001 µM
IC50/EC50, WntCondMedia_bCatenin C2C12 (assay number 5) [2]: 4.8413 µM
IC50/EC50, Basal_Viability ATP SNU-C1 (assay number 30) (SNU-C1; basal): > 20 µM

C[C@@]12C(=O)OC(=O)[C@]1(C)C1CCC2O1 [NCGC00025212-08]
hGSK3b LANCE IC50/EC50 (hGSK3b): > 20 µM
Hela CellCycMod PI 2N IC50/EC50 (HeLa cells; 2N): > 10 µM
Hela CellCycMod PI S Phase IC50/EC50 (HeLa cells): > 10 µM
Hela CellCycMod PI 4N IC50/EC50 (HeLa cells; 4N): > 10 µM
Hela CellCycMod PI MI IC50/EC50 (HeLa cells; MI): 8.4996 µM
Hela CellCycMod PI Cell Number IC50/EC50 (HeLa cells): 1.0094 µM
hp70S6K1 LANCE IC50/EC50 (hp70S6K1 (RPS6KB1)): > 20 µM
hFLT3 LANCE IC50/EC50 (hFLT3): > 20 µM
VEGF_ADSC\ECFC Angio CD31 TubeArea IC50/EC50 [3]: 1.2254 µM
hNCI-H716 GLP1 Secretion IC50/EC50 (NCI-H716 cells): 6.6758 µM
mSTC-1 GLP1 Secretion IC50/EC50 (STC-1 cell line): 13.7125 µM
WntCondMedia_Alk Phos C2C12 IC50/EC50 [1]: 1.4897 µM
hJAK2 LANCE IC50/EC50 (hJAK2): > 20 µM
VEGF_ADSC\ECFC Angio Hoechst NucArea IC50/EC50 [4]: 8.333 µM
hKDR LANCE IC50/EC50 (hKDR): > 20 µM
WntCondMedia_bCatenin C2C12 IC50/EC50 [2]: > 20 µM

CCCCCCCCCCCCCC[N+](C)(C)C.[Br-] [NCGC00166121-03]
hGSK3b LANCE IC50/EC50 (hGSK3b): > 20 µM
Hela CellCycMod PI 2N IC50/EC50 (HeLa cells; 2N): > 10 µM
Hela CellCycMod PI S Phase IC50/EC50 (HeLa cells): > 10 µM
Hela CellCycMod PI 4N IC50/EC50 (HeLa cells; 4N): > 10 µM
Hela CellCycMod PI MI IC50/EC50 (HeLa cells; MI): > 10 µM
Hela CellCycMod PI Cell Number IC50/EC50 (HeLa cells): 3.3211 µM
Basal_Viability ATP Colo 320 IC50/EC50 (Colo320): 2.516 µM
Basal_Viability ATP SW480 IC50/EC50 (SW480): 0.9328 µM
hp70S6K1 LANCE IC50/EC50 (hp70S6K1 (RPS6KB1)): > 20 µM
Basal_Viability ATP DLD-1 IC50/EC50 (DLD-1): 0.4746 µM
hFLT3 LANCE IC50/EC50 (hFLT3): > 20 µM
VEGF_ADSC\ECFC Angio CD31 TubeArea IC50/EC50 [3]: 1.9016 µM
hNCI-H716 GLP1 Secretion IC50/EC50 (NCI-H716 cells): 18.5931 µM
mSTC-1 GLP1 Secretion IC50/EC50 (STC-1 cell line): > 40 µM
Basal_Viability ATP HCT116 IC50/EC50 (HCT116): 2.287 µM
WntCondMedia_Alk Phos C2C12 IC50/EC50 [1]: > 20 µM
hJAK2 LANCE IC50/EC50 (hJAK2): > 20 µM
VEGF_ADSC\ECFC Angio Hoechst NucArea IC50/EC50 [4]: 6.684 µM
hKDR LANCE IC50/EC50 (hKDR): > 20 µM
Basal_Viability ATP HT-29 IC50/EC50 (HT-29): 1.32 µM
GSK3b inh pretreated_Viability ATP HCT116 IC50/EC50 ([5]; assay number 26, GSK3b inhibitor pretreated): 0.754 µM
Basal_Viability ATP RKO IC50/EC50 (RKO): 0.1473 µM
WntCondMedia_bCatenin C2C12 IC50/EC50 [2]: > 20 µM
Basal_Viability ATP SNU-C1 IC50/EC50 (SNU-C1): 0.00517 µM
